{"source": "paper PMC8032624", "about": "“Prediction of dose-dependent in vivo acetylcholinesterase inhibition by profenofos in rats and humans using physiologically based kinetic (PBK) modeling-facilitated reverse dosimetry” (Archives of Toxicology, 2021)", "key": {"[1]": {"target": "T1, rat RBC AChE (Rattus norvegicus, UniProt P37136)", "T1 construct": "contained 0.005 mg/ml erythrocyte ‘ghost’ membrane protein; tissue BioIVT; host or cells: rat blood; erythrocyte 'ghost' membranes (Sprague-Dawley rats)", "T1 sequence (P37136 other isoform, or with tags, fused parts or gaps)": "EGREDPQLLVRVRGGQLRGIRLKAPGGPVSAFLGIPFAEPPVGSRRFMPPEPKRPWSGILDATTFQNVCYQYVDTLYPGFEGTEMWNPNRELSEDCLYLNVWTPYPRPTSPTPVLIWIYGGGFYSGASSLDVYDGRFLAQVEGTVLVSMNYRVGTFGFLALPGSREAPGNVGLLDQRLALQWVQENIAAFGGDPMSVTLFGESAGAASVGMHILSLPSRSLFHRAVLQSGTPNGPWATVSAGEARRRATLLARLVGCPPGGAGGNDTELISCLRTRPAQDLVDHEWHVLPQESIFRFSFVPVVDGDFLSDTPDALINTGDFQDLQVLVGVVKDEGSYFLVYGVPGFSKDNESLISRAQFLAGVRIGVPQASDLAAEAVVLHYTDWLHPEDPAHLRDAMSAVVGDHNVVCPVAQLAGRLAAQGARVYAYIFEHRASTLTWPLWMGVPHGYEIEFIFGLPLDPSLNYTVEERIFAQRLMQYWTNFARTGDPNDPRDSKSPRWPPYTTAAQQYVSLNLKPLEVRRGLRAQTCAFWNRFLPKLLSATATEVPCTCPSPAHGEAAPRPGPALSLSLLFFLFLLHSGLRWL", "assay": "In vitro inhibition of rat erythrocyte (RBC) AChE", "type": "biochemical", "experimental": "To perform reverse dosimetry of in vitro AChE inhibition by profenofos, first the in vitro AChE activity in the absence or presence of increasing concentrations of profenofos was determined. For humans, commercially available recombinant AChE was used. For rats, no commercially available recombinant AChE was available, so rat AChE was obtained from rat blood as described below.\nAChE activity was expressed as enzyme activity (percent of control). The concentration of profenofos that produced a 50% decrease in AChE activity (IC50) was determined from best‐fit plots of the mean (± SD) percentages of inhibition vs. the 10log logarithm of profenofos concentrations using GraphPad Prism 5, version 5.04 (San Diego, California, USA) equation: Y=100/(1+10^(X-LogIC50)).\nRat blood samples were processed according to a method reported by Larsen et al. ([2019]) with a few modifications to isolate the extrinsic membrane bound AChE. Briefly, the blood sample (2 ml) was centrifuged at 3000g for 15 min to separate plasma and cells. […] Aliquots of erythrocyte ‘ghost’ membrane preparations were used for protein measurement using the Pierce™ BCA Protein Assay Kit (Thermofisher) with BSA as standard for quantification (Lowry et al. [1951]), and for AChE activity assessment.\nThe effect of profenofos on rat AChE activity was assessed as described above for human recombinant AChE, with a few modifications. […]"}, "[2]": {"test_system": "AChE", "assay": "PBK modeling-facilitated reverse dosimetry and BMD modelling of predicted AChE inhibition in rats", "design": "species or system rat", "from_the_text": "In the present study, it was assumed that in vivo dose-dependent AChE inhibition (in blood) depends on the maximum concentration (Cmax) of profenofos reached in the blood. For adequate PBK modeling-facilitated reverse dosimetry, the active (unbound) concentration of a test chemical in the in vitro test system should be linked to the in vivo freely available chemical at the target site. This is important since it is assumed that it is the fraction unbound that causes the effect (AChE inhibition). In the in vitro incubations, a very low concentration of BSA (0.1 mg/mL) is present. Heilmair et al. ([2008]) reported that with such low BSA concentrations, the free concentration of chlorpyrifos oxon is not affected. Furthermore, Rosenfeld and Sultatos ([2006]) found no evidence of binding of paraoxon by BSA even at a higher concentration (1 mg/ml) during incubations. Based on these observations, no significant effect on the free fraction of profenofos in the in vitro AChE inhibition studies is expected, which corroborated with estimations on profenofos binding in the in vitro incubations with help of the online simcyp tool (https://www.certara.com/software/pbpk-modeling-and-simulation/).\nBy calculating with the PBK model, the external dose required to reach (as unbound Cmax) the concentrations applied in the in vitro test, each in vitro concentration was translated into an in vivo dose. In this way, the concentration–response curves for rat and human AChE inhibition were converted into in vivo dose–response curves for profenofos-induced AChE inhibition in rats and humans, respectively.\nTo evaluate the performance of the PBK modeling-facilitated reverse dosimetry approach to predict in vivo AChE inhibition, the predicted dose–response curve for rat AChE inhibition upon exposure to profenofos was compared with available in vivo data on AChE inhibition in rats (JMPR [2007]). […]"}, "[3]": {"test_system": "brain AChE", "settings": "rats, single exposure; ref JMPR [2007]; cited from earlier work"}}, "note": "pIC50: −log10 of the molar value.", "data": [{"smiles": "CCCSP(=O)(OCC)Oc1ccc(Br)cc1Cl", "note": "(centres unmarked) [profenofos, O-(4-bromo-2-chlorophenyl) O-ethyl S-propyl phosphorothioate]", "values": [{"measurement": "pIC50", "setting": "[1]", "value": 6.51}, {"measurement": "JMPR NOAEL relative to BMDL10 from predicted rat dose-response data", "setting": "[2]", "value": 200, "unit": "fold"}, {"measurement": "Predicted rat BMDL10 relative to EFSA ARfD", "setting": "[2]", "value": "~ 100 fold"}, {"measurement": "US EPA BMDL10 relative to BMDL10 from predicted rat dose-response data", "setting": "[2]", "value": 4, "unit": "times"}, {"measurement": "NOAEL for inhibition of brain AChE", "setting": "[3]", "value": 100, "unit": "mg/kg bw"}]}]}
